The text below walks through data of patent US20170327509A1, “TWO-PHOTON ABSORBING FLUOROPHORES AND METHOD FOR CELLULAR IMAGING USING THE SAME” (POSTECH ACADEMY-INDUSTRY FOUNDATION, priority 2014, published 2017).

Like-named read-outs stand apart in the source and are kept apart here.

Data set [1] in a line: Absorbance spectra / molar extinction coefficients at the maximum absorption wavelength. Type of data set: physicochemical. Conditions: water (containing 1% DMSO), acetonitrile, and dichloromethane; FIG. 33. The method, then:
Specifically, to confirm the absorbing properties of two-photon absorbing fluorophores, the inventors measured absorbance spectra for Compounds 1 to 9 at the concentration of 10 μM in HEPES buffer (containing 1% DMSO, pH 7.4) and water (containing 1% DMSO), contained in quartz cells with a light path length of 1 cm, and the results are respectively shown in the left and right graphs of FIG. 2. Absorbance spectra for Compounds 1 to 9 at the concentration of 10 μM in ethanol and acetonitrile were measured, and the results are respectively shown in the left and right graphs of FIG. 3. Absorbance spectra for Compounds 1 to 9 at the concentration of 10 μM in dimethylformamide and dichloromethane were measured, and the results are respectively shown in the left and right graphs of FIG. 4. Absorbance spectra for Compounds 1 to 9 at the concentration of 10 μM in cyclohexane were measured, and the result is shown in FIG. 5. Absorbance spectra for Compounds 10 to 12 at the concentration of 10 μM in water (a, containing 1% DMSO), acetonitrile (b), and dichloromethane (c) were measured, and the results are shown in FIG. 31. The absorbance spectra were measured using a HP 8453 UV/Vis spectrophotometer. […]

Data set [2] in a line: Two-photon absorption cross-section by two-photon induced fluorescence method. Type of data set: physicochemical. Particulars: water (containing 1% DMSO); excitation 800 nm, 820 nm, 840 nm; FIG. 35. An excerpt:
Specifically, to confirm the fluorescence properties of the two-photon absorbing fluorophores under two-photon excitation, the inventors measured fluorescence spectra by two-photon excitation using a titanium:sapphire oscillator (Ti:sapphire oscillator), which was pumped by a frequency-doubled neodimium:yttrium orthovanadate laser (Nd:YVO4 laser; Verdi, Coherent) with an output power of 5.0 W. Output pulse energy was 40 nJ, and repetition rate was 380 kHz.
In addition, two-photon absorption cross-section values of each of Compounds 1 and 5 to 7 in dichloromethane solution, acetonitrile solution, and water (containing 1% DMSO) were measured, and the results are shown in FIGS. 28 and 29. Two-photon absorption cross-section values of each of Compounds 10 to 12 in a dichloromethane solution, an acetonitrile solution, and water (containing 1% DMSO) were measured, and the results are shown in FIG. 35. As a comparative compound, rhodamine B generally used as a fluorescent probe was used (two-photon absorption cross-section values, GM=300 (740 nm), 470 (760 nm) and 540 (780 nm), measured in an ethanol solution). Two-photon absorption cross-section values were measured by a two-photon induced fluorescence method (Fischer, A. et al. Applied Optics 1995, 34, 1989), 1 GM refers to 10^−50 cm^4 s photon^−1 molecule^−1.

Data set [3] can be described thus: Fluorescence quantum yield (reference rhodamine B). Type of data set: physicochemical. Particulars: water (containing 1% DMSO); FIGS. 15 and 34. The method, then:
Further, fluorescence quantum yields of Compounds 1 to 9 in dichloromethane, acetonitrile, and water (containing 1% DMSO) were measured, and the results are shown in FIG. 15. Fluorescence quantum yields of Compounds 10 to 12 in dichloromethane, acetonitrile, and water (containing 1% DMSO) were measured, and the results are shown in FIG. 34. As a reference compound, rhodamine B was used (fluorescence quantum yield, ΦF=0.6, measured in ethanol).

Data set [4] is described as follows: Fluorescence spectra / fluorescence intensities in solution. Type of data set: physicochemical. Conditions: 1 μM in water (containing 1% DMSO); excitation at the maximum absorption wavelength; FIG. 40. The method, then: 10. […] 11. […] 12. […] 32. All fluorescence spectra were measured at the […] (FIG. 14). The fluorescence spectra were measured using a Photon Technical International Fluorescence System.
13(a). […] 13 (b, left) and FIG. 13 (b, right). Referring to FIGS. 9 and 13, it can be confirmed that fluorescence intensities of the two-photon absorbing fluorophores (particularly, Compounds 2 to 8) of the present invention in HEPES buffer (containing 1% DMSO, pH 7.4) and water (containing 1% DMSO) are higher than those of the conventional acedan (Compound 1).
In addition, to compare the fluorescence intensities of the compounds in aqueous solution according to a structural change, fluorescence intensities of Compounds 1, 5, and 13 to 18 at the concentration of 1 μM in water (containing 1% DMSO) were compared, and the results are shown in FIG. 40. The fluorescence intensities were measured through excitation of each compound at the maximum absorption wavelength. […] It can be confirmed that, as the degrees of hydrogen bonding of water molecule to the nitrogen atom in Compounds 13 to 17 are reduced, the fluorescence intensities increase.

For data set [5] the following is noted: comparative compound, ethanol solution, cited from earlier work.
For data set [6] the following is noted: reference compound; measured in ethanol; cited from earlier work.

A word on the melting point: it is the temperature, or range, at which the solid turns liquid. `CC(=O)c1ccc2cc(N3C4CCC3CC4)ccc2c1` showed a melting point of 118 to 120 °C. As to `CC(=O)c1ccc2cc(NC(C)C)ccc2c1` [Compound 3, 1-(6-(isopropylamino)naphthalen-2-yl)ethanone], the melting point lay in the range of 112 to 114 °C. Same read-out and setting: in the case of `CNc1ccc2cc(C(C)=O)ccc2c1` [Compound 4, 1-(6-(methylamino)naphthalen-2-yl)ethanone] it was 182 °C. `CC(=O)c1ccc2cc(NC3CCC(O)CC3)ccc2c1` (centres unmarked) [Compound 5, 1-(6-(4-hydroxycyclohexylamino)naphthalen-2-yl)ethanone] yielded a melting point of 186 to 188 °C.

As to `CC(=O)c1ccc2cc(N3CCOCC3)ccc2c1` [Compound 8, 1-(6-morpholinonaphthalen-2-yl)ethanone], the melting point was in the range of 149 to 151 °C. Take `CC(=O)c1ccc2cc(N(C)C3CCC(O)CC3)ccc2c1` (centres unmarked) [Compound 9, 1-(6-((4-hydroxycyclohexyl)(methyl)amino)naphthalen-2-yl)ethanone]: the melting point fell in the range of 192 to 194 °C. For the compound `O=C1c2cccc3c(NC4CCC(O)CC4)ccc(c23)C(=O)N1CCO` (centres unmarked) [Compound 10, 6-(4-hydroxycyclohexylamino)-2-(2-hydroxyethyl)-1H-benzo[de]isoquinoline-1,3(2H)-dione], the molar extinction coefficients result in data set [1] was “higher than those of the conventional Compound 11 (Formula 11) and Compound 12 (Formula 12)”. Further, the “two-photon absorption cross-section value” in data set [2] was “higher than those of the conventional Compounds 11 and 12”. Also, the fluorescence quantum yield entry in data set [3] is “higher than those of the conventional Compounds 11 and 12”. Take `CC(=O)c1ccc2cc(N3CCCC3)ccc2c1` [Compound 18]: in data set [4], the fluorescence intensities entry is reported as “increase of fluorescence intensity”. On to `CCN(CC)c1ccc2c(-c3ccccc3C(=O)O)c3ccc(=[N+](CC)CC)cc-3oc2c1.[Cl-]` [rhodamine B], for which the “two-photon absorption cross-section value” in data set [5] (740 nm) is listed as 300 GM; in data set [5] (760 nm), 470 GM; in data set [5] (780 nm), 540 GM. Also, the “fluorescence quantum yield, ΦF” value in data set [6] is recorded as 0.6.
